Experimental data reported in US5348941A, “Stabilizers for fibroblast growth factors” (Merck & Co., Inc., priority 1992, dated 1994).

Assays:
aFGF [1] = target: T1, aFGF (Homo sapiens, UniProt P05230); assay: Thermal denaturation (Tm) of aFGF by circular dichroism; type: biochemical; conditions: for Tm of aFGF (maximum Tm induced by ligand), circular dichroism: PBS pH 7.2, excess ligand (1-3X by weight; 120 mM sodium sulfate, 10 mM tetrapolyphosphate); for Tm of aFGF, circular dichroism: 3X ligand by weight
T1 construct: The recombinant derived, 140 amino add form is the preferred form of aFGF; N-terminal methionine (MetHaFGF); made in house; host or cells: microbial cells (preferred embodiment)
T1 sequence (P05230 16-155 limits assumed): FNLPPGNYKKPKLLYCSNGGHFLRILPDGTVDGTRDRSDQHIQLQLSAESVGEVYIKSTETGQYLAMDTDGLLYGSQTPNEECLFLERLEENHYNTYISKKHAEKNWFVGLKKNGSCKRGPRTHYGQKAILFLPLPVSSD

aFGF [2] = target: T1, aFGF; assay: Copper-catalyzed oxidation of aFGF thiol groups; type: biochemical; conditions: for Cu Oxidation (% SH Lost in 10 Mins): ligand 3X by weight, sodium sulfate 120 mM, tetrapolyphosphate 10 mM
Experimental: Copper-catalyzed oxidation of aFGF is carried out in the following manner. Acidic FGF (about 80 μg/ml) is incubated in a 20 mM Tris, 0.15M potassium chloride, pH 8 solution containing about 20 μM cuptic chloride for varying periods of time at room temperature. The reaction was terminated by the addition of 100 mM EDTA in the same buffer. A solution of about 0.7 ml of 0.25M Tris (about pH 8) containing about 2 mM EDTA and about 7 M GuHC1 is then added followed by about 35 μl of 4 mg/ml of DTNB (Sigma). Samples were incubated for 30 minutes, filtered through a 0.22 micron filter and the optical density measured at about 412 nm to determine sulfhydryl content, Riddles et al., Meth. Enzymol. 9:49-60 (1983). Relative standard deviation of the obtained values during time course experiments is 12%.
Acidic FGF contains three free cysteine residues at positions […], 83 and 117 in the polypeptide chain. […] It has also been shown that the copper catalyzed oxidative formation of a disulfide bond in the wild-type aFGF inactivates the protein in an in vitro mitogenic assay, Ortega et al., J. Biol. Chem. 266:5842-5846 (1991). Therefore, it was of interest to determine the extent to which heparin can stabilize aFGF against inactivation by oxidation. […] Samples contained 80 μg/ml aFGF with (a) 3X heparin by weight, (b) 0.1X heparin by weight and (c) buffer alone. As heparin was introduced and its concentration increased, the rate of copper-catalyzed oxidation decreased. For example, after 20 minutes, greater than 95% of the cysteine residues of aFGF are protected from oxidation with 3X heparin. FIG. 4B illustrates the fraction of remaining reactive thiol groups after a 10-minute incubation with cupric chloride as a function of heparin concentration.
Some aggregation of aFGF occurs under the conditions of these experiments presumably due to at least partial intermolecular disulfide formation. Thus, these measurements could simply be a measurement of the loss of solubility induced by copper association with aFGF. Several experiments, however, argue against this possibility. First, previous work has shown that at dilute protein concentration, copper does indeed catalyze oxidation of thiol groups of aFGF, Ortega et al., J. Biol. Chem. 266:5842-5846 (199 1 ). Second, as a control experiment, the copper-catalyzed oxidation of aFGF was carded out in a buffer containing 6 M GuHCl. Under these denaturing conditions, nearly 100% of the thiol groups in solution were lost after 10 minutes without visible aggregation. […] Regardless of the precise mechanism, copper addition is a distinct mechanism of inactivation compared to thermal stress.
Similar protection against oxidation experiments were carried out with other negatively charged compounds with an excess of ligand (3X by weight except for sodium sulfate at 120 mM and tetrapolyphosphate at 10 mM) added to aFGF before copper catalyzed oxidation. As shown in the second column of Table 2, all of these agents at least partially protect the cysteine residues of aFGF from oxidation.
^(b) Percentage of aFGF thiols remaining in solution after 10 min
incubation with cupric chloride. Experimental conditions are described in
FIG. 10. All samples contained ligand at 3× (by weight) except
sodium sulfate (120 mM) and tetrapolyphosphate (10 mM).

Compound	Tm of aFGF (maximum Tm induced by ligand), circular dichroism (aFGF [1])	Cu Oxidation (% SH Lost in 10 Mins) (aFGF [2])	cysteine residues of aFGF protected from oxidation (aFGF [2]; 3X heparin, 20 minutes)	Tm of aFGF, circular dichroism (aFGF [1])	stabilization against copper-catalyzed oxidation (aFGF [2]; 10-minute incubation, 1/3 weight level of heparin)	Cu Oxidation (% SH Lost in 10 Mins) (aFGF [2]; listed as inositol hexaphosphate)
O=S(=O)(O)OC1C(OS(=O)(=O)O)C(OS(=O)(=O)O)C(OS(=O)(=O)O)C(OS(=O)(=O)O)C1OS(=O)(=O)O (stereo not shown) [Inositol hexasulfate, inositol hexasulfate]	66 °C	22%	–	–	–	–
low molecular weight heparin [Low MW heparin, reference compound]	66 °C	< 3%	–	–	–	–
O=P(O)(O)O[C@H]1[C@H](OP(=O)(O)O)[C@@H](OP(=O)(O)O)[C@H](OP(=O)(O)O)[C@@H](OP(=O)(O)O)[C@H]1OP(=O)(O)O [Inositol hexaphosphate, inositol hexaphosphate]	70 °C	< 3%	–	–	–	less than 3%
sulfated β-cyclodextrin	65 °C	< 3%	–	65 °C	–	–

Second part, led by results:

Tm of aFGF (maximum Tm induced by ligand), circular dichroism (aFGF [1])	Cu Oxidation (% SH Lost in 10 Mins) (aFGF [2])	cysteine residues of aFGF protected from oxidation (aFGF [2]; 3X heparin, 20 minutes)	Compound	Tm of aFGF, circular dichroism (aFGF [1])	stabilization against copper-catalyzed oxidation (aFGF [2]; 10-minute incubation, 1/3 weight level of heparin)	Cu Oxidation (% SH Lost in 10 Mins) (aFGF [2]; listed as inositol hexaphosphate)
64 °C	< 3%	greater than 95%	heparin [reference compound]	64 °C	stabilization essentially complete at 1/3 weight levels of heparin	–
66 °C	< 3%	–	O=P(O)(O)OP(=O)(O)OP(=O)(O)OP(=O)(O)O [Tetrapolyphosphate]	–	–	–
62 °C	7%	–	dextran sulfate	–	–	–
